Assay results: US6524595B1, “Cyclodextrins preferentially substituted on their primary face by acid or amine functions” (priority 2000, dated 2003)

Key:
[1] = Cutaneous penetration test of caffeine on Franz cell (diffusion, release, storage); format: in vitro ADME, rat; conditions: for average quantity of caffeine per unit surface diffused into the receptor chamber: 2 g deposited, 2.54 cm^2 Franz cell, PBS receptor
Protocol: The receptor chamber was constituted by a PBS buffer and antibiotics. Diffusion was monitored over time by sampling from the receptor chamber and analysis by high performance liquid chromatography. […] After rinsing the biopsy used in the diffusion study, it was kept in the Franz cell for 24 hours without donors. The quantity of active ingredient liberated in the PBS buffer was then analyzed by HPLC, to study the ability of the skin to temporarily retain the test solution (Release study).

[2] = Cutaneous penetration study of vitamin E on Franz cell (diffusion, release, storage); format: in vitro ADME, rat; conditions: for percentage of vitamin E diffused: 2 g deposited, 2.54 cm^2 Franz cell, ethoxydiglycol receptor
Protocol: Cutaneous penetration studies were carried out on products 26-a, 26-b, 26-c and 26-d from example 26. […] The receptor chamber was constituted by ethoxydiglycol and antibiotics. Diffusion was monitored over time by sampling from the receptor chamber then HPLC analysis (fluorescence). […] After rinsing the biopsy used in the diffusion study, it was kept in the Franz cell for 24 hours without donors. The quantity of active ingredient liberated in the ethoxydiglycol was then analyzed by HPLC, underlining the ability of the skin to temporarily retain the test solution (release study).

[3] = Vitamin E determination by HPLC (fluorescence); format: physicochemical
Protocol: The vitamin E content was determined by HPLC (fluorescence) and evaluated for each sample: […]

[4] = tested on: skin of rabbits; experiment: Evaluation of primary dermal irritation in the rabbit; format: in vivo; conditions: 10% in a 0.5% xanthan gel, undiluted, 0.5 ml
Protocol: Toxicological tests were carried out on the compound obtained in example 2a incorporated in an amount of 10% into a 0.5% xanthan gel, by occular evaluation in the rabbit, by a study of the absence of abnormal toxicity by a single oral administration to the rat and by a sensitization power study in the guinea-pig.
At the same time, a toxicological study was carried out under the same experimental conditions on commercial β-cyclodextrin incorporated in an amount of 10% into a 0.5% xanthan gel.
The preparations described above were applied undiluted in a dose of 0.5 ml to the skin of 3 rabbits using the method recommended by the OECD directive regarding the study of “The acute dermal irritant/corrosive effect”.
The products were classified in accordance with the criteria in the order of Feb. 1, 1982 published in the JORF [Official journal of the French Republic] on Feb. 2, 1982.

[5] = Aspect of the solution obtained / nanoparticle formation; format: physicochemical
Protocol: The solution was then added at a constant rate (1 ml/s) to distilled water (450 ml) with stirring to form a milky solution. […] The procedure of example 15 was followed but instead of using the compound obtained in example 2, a commercial β-cyclodextrin with an identical molar concentration was used.

[6] = biopsy in ethanolic solution 24 hours after release study
[7] = rinsed biopsy kept in Franz cell 24 hours without donors

Cn1c(=O)c2c(ncn2C)n(C)c1=O [Caffeine free, caffeine]
average quantity of caffeine per unit surface diffused into the receptor chamber ([1]; 0 hours): 0 μg/cm^2
average quantity of caffeine per unit surface diffused into the receptor chamber ([1]; 24 hours): 1783 μg/cm^2
Storage (caffeine still present in the skin) [1, 6]: 26.57 ± 6.55 μg/cm2
Release (caffeine liberated in the PBS buffer) [1, 7]: 286.8 ± 28.36 μg/cm2

Cc1c(C)c2c(c(C)c1O)CC[C@@](C)(CCC[C@H](C)CCC[C@H](C)CCCC(C)C)O2 [Example 26-d, vitamin E]
percentage of vitamin E diffused ([2]; 0 hours): 0
percentage of vitamin E diffused ([2]; 48 hours): 10.32%
Storage (vitamin E still present in the skin) [2, 6]: 1.74 ± 0.24 % diffusion
Release (vitamin E liberated in the ethoxydiglycol) [2, 7]: 3.33 ± 0.9 % diffusion
Vitamin E determination (vitamin E content of sample) ([3]; 0.1% of vitamin E used): 0.0943%

OC[C@H]1O[C@@H]2O[C@H]3[C@H](O)[C@@H](O)[C@@H](O[C@H]4[C@H](O)[C@@H](O)[C@@H](O[C@H]5[C@H](O)[C@@H](O)[C@@H](O[C@H]6[C@H](O)[C@@H](O)[C@@H](O[C@H]7[C@H](O)[C@@H](O)[C@@H](O[C@H]8[C@H](O)[C@@H](O)[C@@H](O[C@H]1[C@H](O)[C@H]2O)O[C@@H]8CO)O[C@@H]7CO)O[C@@H]6CO)O[C@@H]5CO)O[C@@H]4CO)O[C@@H]3CO [commercial β-cyclodextrin, β-cyclodextrin]
primary dermal irritation classification [4]: slight irritant for the skin
solubility in water (in words) [5]: soluble in water
nanoparticle formation (in words) ([5]; nanoparticle protocol with commercial β-cyclodextrin at identical molar concentration): no nanoparticles are formed

(Lauroate)y-β-cyclodextrin [Example 2a]
primary dermal irritation classification [4]: non irritant to the skin
encapsulation of vitamin E (in words) [3]: encapsulated the vitamin E highly effectively
